Results as given in patent US4267192A, “Method for treating inflammation” (priority 1980, dated 1981).
Read-outs that look alike come from different tables or passages of the source.

Legend:
prostaglandin synthetase = target: T1, prostaglandin synthetase (Ovis aries, UniProt P05979); conditions: in words; cited from earlier work
T1 sequence (P05979 25-600): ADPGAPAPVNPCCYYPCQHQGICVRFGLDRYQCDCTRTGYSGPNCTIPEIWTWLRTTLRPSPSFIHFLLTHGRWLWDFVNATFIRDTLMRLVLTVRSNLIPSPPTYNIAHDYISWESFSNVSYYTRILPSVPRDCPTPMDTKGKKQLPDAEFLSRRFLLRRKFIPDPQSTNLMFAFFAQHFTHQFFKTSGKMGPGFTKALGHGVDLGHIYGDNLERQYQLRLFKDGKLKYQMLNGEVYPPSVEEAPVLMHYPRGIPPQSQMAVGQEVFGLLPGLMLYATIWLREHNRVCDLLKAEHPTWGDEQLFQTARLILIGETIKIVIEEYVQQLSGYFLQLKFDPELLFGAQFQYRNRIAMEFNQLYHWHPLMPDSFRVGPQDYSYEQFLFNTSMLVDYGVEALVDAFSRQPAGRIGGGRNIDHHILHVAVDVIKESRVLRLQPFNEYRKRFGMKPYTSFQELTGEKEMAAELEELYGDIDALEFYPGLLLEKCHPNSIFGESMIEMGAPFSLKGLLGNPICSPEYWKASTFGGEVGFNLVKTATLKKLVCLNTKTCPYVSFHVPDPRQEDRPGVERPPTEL

[1] = tested on: carrageenan-induced edema in the hind paw of the rat; test: rat carrageenan edema test (hind paw); assay type: in vivo, rat (male Sprague-Dawley); conditions: for Change in paw volume (ml) from 0-3 hr: mean ± S.E.; for % Change in paw edema: vs control
Experimental: (§1) Vehicle alone is administered as a control. Sixty minutes after drug administration edema is induced by an injection of 0.1 ml. of a 1% carrageenan solution is saline into the subplantar tissue of the rat's right hind paw. Two minutes later, paw volume is measured volumetrically with a plethysmograph and again 3 hours later. The mean volume of swelling for the control group is calculated and compared to the test groups. Percent change in paw edema is calculated and analyzed statistically (unpaired, Student's t-test).

[2] = tested on: carrageenan-induced edema in the hind paw of normal and adrenalectomized rats; test: carrageenan paw edema in normal and adrenalectomized rats; assay type: in vivo, rat; conditions: oral 5 mg/kg
Experimental: as §1
Normal rats received the same doses as adrenalectomized rats.

[3] = tested on: prostaglandin synthesis in gastric mucosa; conditions: background; in words; cited from earlier work
[4] = tested on: polyarthritis induced by Mycobacterium butyricum or tuberculosis in rats; conditions: rat; for Increase in Left Paw Volume (ml.) 0-16 days / Increase in Right Paw Volume (ml.) 0-4 days: mean ± S.E.
Experimental: (§2) Polyarthritis is induced in groups of 6-10 Sprague-Dawley rats weighing between 180-220 g. by a subcutaneous injection into the right paw of dessicated Mycobacterium butyricum or tuberculosis (0.5 mg/0.1 ml.) suspended in light mineral oil. […] Both hind paw volumes (ml.) are measured by mercury plethysmograph on day 0 or at the time of injection of the complete adjuvant. Increases in paw volume (viz. edema) are determined for both paws on days 4 and 16. The change in body weight from day 0 to day 16 is also calculated. Statistical analysis of differences in paw edemas and body weight is performed by using the unpaired. Student's t-test.

[5] = tested on: rat stomach (gastric ulcers, gastric swelling); assay type: in vivo, rat (male Charles River, Sprague-Dawley); conditions: for Number of Animals With Gastric Swelling / Number of Animals With Gastric Ulcers: rat, 4 hours after dosing
Experimental: The rats are divided into groups 6-10 and dosed by the oral route with test compound, on a mg/kg. body weight basis, or vehicle control, 0.5% carboxymethylcellulose, in a volume of 3 ml. per rat. Four hours after dosing, the rats are decapitated and exsanguinated. Stomachs are removed and examined for gastric swelling and then opened and washed for visual inspection of gastric ulcers. Only one lesion or gastric bleeding is necessary for a positive response. Data is reported quantally.

[6] = tested on: rat stomach (gastric ulcers, gastric swelling); conditions: especially in long-term therapy; in words; cited from earlier work
[7] = tested on: established adjuvant arthritis in rats; test: established adjuvant arthritis, dosing on days 16, 17 and 18; conditions: rat
Experimental: as §2
The changes in left paw edema are measured at the end of 19 days, 23 days and 30 days.

[8] = background; in words; cited from earlier work
[9] = oral 0.1 mg/kg daily, Table 3 group a
[10] = oral 0.3 mg/kg daily, Table 3 group a
[11] = oral 1.0 mg/kg daily, Table 3 group a
[12] = oral 3.0 mg/kg daily, Table 3 group a
[13] = oral 0.33 mg/kg, days 16, 17, 18
[14] = oral 1.00 mg/kg, days 16, 17, 18
[15] = oral 3.00 mg/kg, days 16, 17, 18
[16] = oral 25.0 mg/kg daily, Table 3 group b

COc1ccc2c(c1)c(CC(=O)O)c(C)n2C(=O)c1ccc(Cl)cc1 [Indomethacin, indomethacin, reference compound]
appreciable effects on prostaglandin synthetase activity (prostaglandin synthetase): appreciable effects on prostaglandin synthetase activity
estimated ED50 (carrageenan paw edema) ([1]; oral): ~2.7 mg/kg
Change in paw volume (ml) from 0-3 hr ([1]; oral 1 mg/kg, Table 1 group b): 0.65 ± 0.06 mL
% Change in paw edema ([1]; oral 1 mg/kg, Table 1 group b): -36%
Change in paw volume (ml) from 0-3 hr ([1]; oral 3 mg/kg, Table 1 group b): 0.50 ± 0.07 mL
% Change in paw edema ([1]; oral 3 mg/kg, Table 1 group b): -51%
Change in paw volume (ml) from 0-3 hr ([1]; oral 5 mg/kg, Table 1 group e): 0.54 ± 0.08 mL
% Change in paw edema ([1]; oral 5 mg/kg, Table 1 group e): -53%
Change in paw volume (ml) from 0-3 hr ([1]; oral 9 mg/kg, Table 1 group b): 0.32 ± 0.02 mL
% Change in paw edema ([1]; oral 9 mg/kg, Table 1 group b): -69%
% Inhibition ([2]; Adrenalectomized Rats): 59%
Edema (ml) ± S.E. ([2]; Adrenalectomized Rats): 0.42 ± .09 mL
% Inhibition ([2]; Normal Rats): 60%
Mean Edema (ml) ± S.E. ([2]; Normal Rats): 0.42 ± .09 mL
inhibitory effect on prostaglandin synthesis in gastric mucosa [3]: marked inhibitory effect on prostaglandin synthesis in gastric mucosa
% Change of Left Paw Edema at Day 16 [4, 9]: +5.1%
% Change of Right Paw Edema at Day 4 [4, 9]: -31%
Change In Body Weight (mean ± S.E.) 0-16 days [4, 9]: 16.9 ± 9.0
Increase in Left Paw Volume (ml.) 0-16 days [4, 9]: 0.82 ± .12 mL
Increase in Right Paw Volume (ml.) 0-4 days [4, 9]: 1.07 ± .15 mL
% Change of Left Paw Edema at Day 16 [4, 10]: -33%
% Change of Right Paw Edema at Day 4 [4, 10]: -30%
Change In Body Weight (mean ± S.E.) 0-16 days [4, 10]: 25.7 ± 7.8
Increase in Left Paw Volume (ml.) 0-16 days [4, 10]: 0.52 ± .07 mL
Increase in Right Paw Volume (ml.) 0-4 days [4, 10]: 1.09 ± .06 mL
% Change of Left Paw Edema at Day 16 [4, 11]: -55%
% Change of Right Paw Edema at Day 4 [4, 11]: -42%
Change In Body Weight (mean ± S.E.) 0-16 days [4, 11]: 36.5 ± 7.9
Increase in Left Paw Volume (ml.) 0-16 days [4, 11]: 0.35 ± .03 mL
Increase in Right Paw Volume (ml.) 0-4 days [4, 11]: 0.90 ± .11 mL
% Change of Left Paw Edema at Day 16 [4, 12]: -65%
% Change of Right Paw Edema at Day 4 [4, 12]: -37%
Change In Body Weight (mean ± S.E.) 0-16 days [4, 12]: 49.8 ± 6.2
Increase in Left Paw Volume (ml.) 0-16 days [4, 12]: 0.27 ± .03 mL
Increase in Right Paw Volume (ml.) 0-4 days [4, 12]: 0.99 ± .05 mL
estimated ED50 (adjuvant arthritis test) ([4]; oral, daily): ~0.9 mg/kg
effects on the gastric tract ([5]; dosage levels indicated for treatment of inflammatory conditions): significant effects on the gastric tract
Number of Animals With Gastric Swelling ([5]; oral 2.5 mg/kg): 0/10
Number of Animals With Gastric Ulcers ([5]; oral 2.5 mg/kg): 0/9
Number of Animals With Gastric Swelling ([5]; oral 5.0 mg/kg): 0/10
Number of Animals With Gastric Ulcers ([5]; oral 5.0 mg/kg): 9/10
Number of Animals With Gastric Swelling ([5]; oral 10.0 mg/kg): 0/10
Number of Animals With Gastric Ulcers ([5]; oral 10.0 mg/kg): 10/10
gastric ulcerogenicity [6]: proven gastric ulcerogens
rats died by the 23rd day ([7]; 3.00 mg/kg, days 16, 17 and 18): six out of ten rats had died
% Change from Control, left paw edema (day 0-19) [7, 13]: -31%
% Change from Control, left paw edema (day 0-23) [7, 13]: +6%
% Change from Control, left paw edema (day 0-30) [7, 13]: -6%
Increase in left paw edema ml. (day 0-19) [7, 13]: 0.70 ± 0.11 mL
Increase in left paw edema ml. (day 0-23) [7, 13]: 1.02 ± 0.14 mL
Increase in left paw edema ml. (day 0-30) [7, 13]: 1.41 ± 0.20 mL
% Change from Control, left paw edema (day 0-19) [7, 14]: -40%
% Change from Control, left paw edema (day 0-23) [7, 14]: +4%
% Change from Control, left paw edema (day 0-30) [7, 14]: -22%
Increase in left paw edema ml. (day 0-19) [7, 14]: 0.62 ± 0.05 mL
Increase in left paw edema ml. (day 0-23) [7, 14]: 1.00 ± 0.06 mL
Increase in left paw edema ml. (day 0-30) [7, 14]: 1.18 ± 0.10 mL
% Change from Control, left paw edema (day 0-19) [7, 15]: -60%
Increase in left paw edema ml. (day 0-19) [7, 15]: 0.41 ± 0.06 mL
deaths (day 0-23) [7, 15]: 6/10
deaths (day 0-30) [7, 15]: 6/10

CCCCC1C(=O)N(c2ccccc2)N(c2ccccc2)C1=O [Phenylbutazone, phenylbutazone, reference compound]
% Change of Left Paw Edema at Day 16 [4, 16]: -39%
% Change of Right Paw Edema at Day 4 [4, 16]: -44%
Change In Body Weight (mean ± S.E.) 0-16 days [4, 16]: 24.0 ± 6.3
Increase in Left Paw Volume (ml.) 0-16 days [4, 16]: 0.45 ± .13 mL
Increase in Right Paw Volume (ml.) 0-4 days [4, 16]: 1.04 ± .05 mL
bone marrow depression [8]: can cause bone marrow depression
